Test results from patent US11572296B1, “Method for extending time of activity of chlorite-based biocides” (priority 2020, dated 2023).

Experiments:
[1] = system: bacteria; details: properties of oxychloro species; cited from earlier work
[2] = system: bacteria; assay: Antimicrobial activity of oxychloro species (general properties); details: treated water, component of the formulation
Source text: The potency and longevity of biocidal activity for this formulation is controlled by varying the ratios of chlorate and acid which provide different profiles of the antimicrobial activities.

| Compound | Biocidal potency [1] | time range of antimicrobial impact / longevity [2] |
| --- | --- | --- |
| [O-][Cl+2]([O-])O [ClO3^−, Chlorate ion] | low |  |
| [Na+].[O-][Cl+2]([O-])[O-] [sodium chlorate] |  | weeks to months |
| Chlorine dioxide [ClO2] |  | within seconds |
| sodium chlorite |  | hours to days |
